Source: patent publication US8425894B2, “Use of oligomers of lactic acid in the treatment of gynaecological disorders” (priority 2007, dated 2013)

Tests used:
[1] = Comparison of in vitro release from lactic acid and OMLA 30 through a dialysis membrane; assay type: physicochemical
Experimental: 200 mg of LA or OMLA was placed in a dialysis bags. The bags were immersed in 50 ml of water (37° C.) and stirred in the same temperature for 48 hours. After 3, 6, 24 and 48 hours the acceptor liquid was removed and replaced with fresh water. The pH was measured at regular intervals. The liquid was titrated with 0.1 or 0.01 M KOH to measure how much LA equivalents are released. Then an excess of KOH was added and after 24 hours the solution was titrated with 0.1 or 0.01 HCl. […] The results are presented in FIG. 4A. pH was measured outside of the dialysis bags each hour between 1 to 10 and periodically up to 48 hours (FIG. 4B).

[2] = Mucoadhesive properties of OMLA formulations (5 graded VAS scale); assay type: physicochemical; conditions: 0 = no, 4 = very pronounced mucoadhesive properties, fluid form
Experimental: Mucoadhesiveness (or bioadhesiveness) is given according to a 5 graded VAS scale, where 0 denotes no mucoadhesive properties and 4 very pronounced mucoadhesive properties.
Chemical and preformulation experiments were carried out in order to determine mucoadhesiveness of OMLA in gel or semisolid forms (see table below). The mucoadhesiveness for the OMLA judged for fluid, gel, patch, and vagitoria. Muco(Bio)adhesiveness is given according to a 5 graded VAS scale, where 0 denotes no mucoadhesive properties and 4 very pronounced mucoadhesive properties.

CC(O)C(=O)O (stereo not drawn) [LA, lactic acid]
release from the dialysis bag ([1]; 200 mg in dialysis bag, 50 ml water, 37° C.): immediately
ability to maintain constant acidic pH outside the dialysis bag ([1]; 50 ml water 37° C., replaced after 3, 6, 24, 48 h): not able to maintain acidic pH constant
Mucoadhesiveness, Fluid [2]: 0
